Reference: ChEMBL document CHEMBL1201862, “PubChem BioAssay data set” (2004)
Active and inactive are the calls of the source.

Columns and labels:
[1] = NIH-3T3 fibroblast cytotoxicity, dose response, cytotoxicity control, cell-based, fluorescence, Alamar Blue, secondary assay (AID 2327); format: functional;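 also: NIH-3T3 mouse fibroblasts cultured with fluconazole at 8 µg/mL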
[2] = biological target: E3 ubiquitin-protein ligase Mdm2 (Homo sapiens, UniProt Q00987); experiment: MDM2-luc reporter signal enhancers, multi-concentration potency testing, MDM2 ubiquitin-protein ligase inhibitor program, whole-cell format, luminescence detection, 384-well microplate (AID 1394); format: functional;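 also: MDM2 E3 inhibitors raise luminescence so EC50 is for signal enhancement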
[3] = Luminescence Cell-Based Dose Confirmation HTS to Identify Activators of 5'UTR Stem-Loop Driven Alpha-Synuclein mRNA Translation in H4 Neuroglioblastoma Cells. [Related pubchem assays: 1829 (Project Summary), 1814 (Primary HTS)]; format: functional
[4] = Luminescence Cell-Based Dose Response HTS to Identify Activators of Luciferase Translation or Activity in H4 […] Cells. [Related pubchem assays: 1829 (Project Summary), 1814 (Primary HTS)]; format: functional
H4 = experiment: Luminescence Cell-Based Dose Response HTS to Identify Activators of 5'UTR Stem-Loop Driven Prion Protein mRNA Translation in H4 Neuroglioblastoma Cells. [Related pubchem assays: 1829 (Project Summary), 1814 (Primary HTS)]; format: functional; settings: Homo sapiens
[5] = fluconazole-exposed Candida albicans growth modulators – fluorescence, retest, confirmation (AID 2467); format: functional, cell-based
[6] = microbe, parasite or virus in culture; format: functional; settings: Mycobacterium tuberculosis
CHO = CHO cell viability loss, potency – luminescence, cytotoxicity control for TLR9-MyD88 binding inhibitor project, dose response (AID 588339); format: functional, cell-based, hamster; settings: Cricetulus griseus;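 also: CHO cells stably coexpressing TLR9 and MyD88 fusions from primary screen; compound exposure lasted 48 hours before viability readout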
INS1 = experiment: INS-1E survival protection against cytokine death – cell-based, luminescence, retest, dose response (AID 449756); format: functional; settings: Rattus norvegicus;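 also: cell death triggered by IL-1 beta plus TNF-alpha plus IFN-gamma mixture; protective hits raise ATP signal compared with cytokine alone wells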
Insulin-degrading enzyme [7] = biological target: T1, Insulin-degrading enzyme (Homo sapiens, UniProt P14735); experiment: recombinant IDE activation, cell-free – biochemical, fluorescence polarization, counter-screen for IDE activator project, dose response (AID 588681)
T1 sequence (P14735 whole entry): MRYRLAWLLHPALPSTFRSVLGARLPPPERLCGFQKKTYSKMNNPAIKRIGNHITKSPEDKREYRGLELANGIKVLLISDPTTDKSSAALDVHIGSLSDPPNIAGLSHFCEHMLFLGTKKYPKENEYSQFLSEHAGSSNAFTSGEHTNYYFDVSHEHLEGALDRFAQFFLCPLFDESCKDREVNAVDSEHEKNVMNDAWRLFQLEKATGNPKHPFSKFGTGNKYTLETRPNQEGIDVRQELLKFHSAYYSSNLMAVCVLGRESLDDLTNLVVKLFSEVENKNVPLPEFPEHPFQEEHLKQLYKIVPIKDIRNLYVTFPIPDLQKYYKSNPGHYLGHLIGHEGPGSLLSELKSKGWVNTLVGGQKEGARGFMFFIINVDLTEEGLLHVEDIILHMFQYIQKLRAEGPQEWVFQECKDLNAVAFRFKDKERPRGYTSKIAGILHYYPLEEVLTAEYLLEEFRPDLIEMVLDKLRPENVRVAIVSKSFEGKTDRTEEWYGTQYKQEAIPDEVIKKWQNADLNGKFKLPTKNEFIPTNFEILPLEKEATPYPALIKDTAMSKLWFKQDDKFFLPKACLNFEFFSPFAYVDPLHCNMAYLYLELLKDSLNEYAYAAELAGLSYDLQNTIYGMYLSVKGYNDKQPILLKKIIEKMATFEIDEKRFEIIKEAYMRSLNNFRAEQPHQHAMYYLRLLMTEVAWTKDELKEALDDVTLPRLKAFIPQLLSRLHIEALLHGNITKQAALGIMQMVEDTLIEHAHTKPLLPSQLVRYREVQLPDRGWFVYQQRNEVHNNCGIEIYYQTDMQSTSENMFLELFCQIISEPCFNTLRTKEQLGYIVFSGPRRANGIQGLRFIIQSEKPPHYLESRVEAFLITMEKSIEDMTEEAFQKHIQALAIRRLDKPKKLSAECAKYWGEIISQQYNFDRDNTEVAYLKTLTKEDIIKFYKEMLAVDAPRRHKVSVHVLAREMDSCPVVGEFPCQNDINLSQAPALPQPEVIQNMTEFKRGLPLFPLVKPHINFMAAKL

Insulin-degrading enzyme [8] = biological target: T1, Insulin-degrading enzyme; experiment: cellular IDE activation of Abeta substrate cleavage – fluorescence polarization, HEK cells, dose response (AID 588439); format: functional, cell-based
HEK293 [9] = experiment: membrane integrity loss in HEK cells – cell-based, fluorescence, cytotoxicity control for IDE activator project, dose response (AID 588440); format: functional; settings: Homo sapiens;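 also: cytotoxicity by LDH release measuring loss of membrane integrity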
HEK293 [10] = experiment: optical interference in Abeta FP readout, dose response, artefact control for IDE activator project, biochemical, fluorescence polarization (AID 588442); format: functional, cell-based; settings: Homo sapiens
[11] = biological target: T2, Sentrin-specific protease 8 (Homo sapiens, UniProt Q96LD8); experiment: inhibition of human SENP8 cleavage activity – biochemical, luminescence, SAR follow-up (AID 504501); format: functional
T2 sequence (Q96LD8 whole entry): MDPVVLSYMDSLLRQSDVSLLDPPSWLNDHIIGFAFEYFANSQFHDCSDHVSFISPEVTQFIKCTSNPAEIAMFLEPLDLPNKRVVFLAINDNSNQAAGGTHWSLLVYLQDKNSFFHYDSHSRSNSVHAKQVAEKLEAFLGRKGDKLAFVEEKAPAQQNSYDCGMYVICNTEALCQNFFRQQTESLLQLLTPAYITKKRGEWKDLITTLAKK

Caspase-3 [12] = biological target: T3, Caspase-3 (Homo sapiens, UniProt P42574); experiment: SAR Analysis of small molecule inhibitors of Sentrin-specific proteases (SENPs) using a Caspase-3 Selectivity assay. [Related pubchem assays (depositor defined):AID2540, AID2599, AID434973, AID489001]; format: functional
T3 sequence (P42574 whole entry): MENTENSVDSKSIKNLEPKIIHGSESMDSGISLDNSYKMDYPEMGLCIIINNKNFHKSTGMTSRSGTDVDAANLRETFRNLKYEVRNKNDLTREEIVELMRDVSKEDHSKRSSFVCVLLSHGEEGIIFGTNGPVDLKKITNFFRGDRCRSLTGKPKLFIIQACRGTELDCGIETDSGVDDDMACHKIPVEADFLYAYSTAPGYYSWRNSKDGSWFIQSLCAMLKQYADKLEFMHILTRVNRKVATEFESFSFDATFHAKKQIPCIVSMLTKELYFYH

[13] = biological target: T4, Sentrin-specific protease 6 (Homo sapiens, UniProt Q9GZR1); experiment: SAR Analysis of small molecule inhibitors of Sentrin-specific protease 6 (SENP6) using a Luminescent assay. [Related pubchem assays (depositor defined):AID2582, AID2599]; format: functional
T4 sequence (Q9GZR1 whole entry): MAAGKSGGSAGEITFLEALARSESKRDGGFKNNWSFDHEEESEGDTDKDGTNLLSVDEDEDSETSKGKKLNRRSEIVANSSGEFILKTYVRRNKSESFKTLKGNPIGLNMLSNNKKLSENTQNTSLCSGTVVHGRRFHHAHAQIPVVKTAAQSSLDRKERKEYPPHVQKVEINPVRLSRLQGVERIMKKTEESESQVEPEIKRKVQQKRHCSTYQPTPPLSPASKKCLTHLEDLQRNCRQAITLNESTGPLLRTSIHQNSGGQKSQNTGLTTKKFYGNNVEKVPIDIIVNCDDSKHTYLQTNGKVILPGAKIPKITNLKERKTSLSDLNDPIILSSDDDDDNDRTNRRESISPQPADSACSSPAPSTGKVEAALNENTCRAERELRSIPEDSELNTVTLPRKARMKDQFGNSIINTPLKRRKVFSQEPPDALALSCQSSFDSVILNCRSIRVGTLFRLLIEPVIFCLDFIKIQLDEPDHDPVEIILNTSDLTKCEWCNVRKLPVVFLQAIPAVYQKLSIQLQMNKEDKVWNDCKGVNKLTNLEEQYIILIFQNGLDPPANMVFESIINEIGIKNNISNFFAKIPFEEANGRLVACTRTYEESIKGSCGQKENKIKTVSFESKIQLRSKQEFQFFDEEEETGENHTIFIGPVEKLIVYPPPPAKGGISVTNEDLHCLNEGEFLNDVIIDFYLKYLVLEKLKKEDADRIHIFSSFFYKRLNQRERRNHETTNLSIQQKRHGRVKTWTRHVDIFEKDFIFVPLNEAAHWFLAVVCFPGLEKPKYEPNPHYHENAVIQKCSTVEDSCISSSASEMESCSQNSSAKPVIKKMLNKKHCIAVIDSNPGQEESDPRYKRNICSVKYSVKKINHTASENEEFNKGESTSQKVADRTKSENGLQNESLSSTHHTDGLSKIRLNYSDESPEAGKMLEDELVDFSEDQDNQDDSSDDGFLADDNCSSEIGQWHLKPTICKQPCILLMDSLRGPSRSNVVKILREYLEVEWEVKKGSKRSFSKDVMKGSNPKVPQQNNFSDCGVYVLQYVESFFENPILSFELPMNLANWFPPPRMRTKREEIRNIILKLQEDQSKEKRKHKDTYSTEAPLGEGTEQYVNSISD

[14] = biological target: T5, Sentrin-specific protease 7 (Homo sapiens, UniProt Q9BQF6); experiment: inhibition of human SENP7 cleavage activity – biochemical, luminescence, SAR follow-up (AID 504497); format: functional
T5 sequence (Q9BQF6 whole entry): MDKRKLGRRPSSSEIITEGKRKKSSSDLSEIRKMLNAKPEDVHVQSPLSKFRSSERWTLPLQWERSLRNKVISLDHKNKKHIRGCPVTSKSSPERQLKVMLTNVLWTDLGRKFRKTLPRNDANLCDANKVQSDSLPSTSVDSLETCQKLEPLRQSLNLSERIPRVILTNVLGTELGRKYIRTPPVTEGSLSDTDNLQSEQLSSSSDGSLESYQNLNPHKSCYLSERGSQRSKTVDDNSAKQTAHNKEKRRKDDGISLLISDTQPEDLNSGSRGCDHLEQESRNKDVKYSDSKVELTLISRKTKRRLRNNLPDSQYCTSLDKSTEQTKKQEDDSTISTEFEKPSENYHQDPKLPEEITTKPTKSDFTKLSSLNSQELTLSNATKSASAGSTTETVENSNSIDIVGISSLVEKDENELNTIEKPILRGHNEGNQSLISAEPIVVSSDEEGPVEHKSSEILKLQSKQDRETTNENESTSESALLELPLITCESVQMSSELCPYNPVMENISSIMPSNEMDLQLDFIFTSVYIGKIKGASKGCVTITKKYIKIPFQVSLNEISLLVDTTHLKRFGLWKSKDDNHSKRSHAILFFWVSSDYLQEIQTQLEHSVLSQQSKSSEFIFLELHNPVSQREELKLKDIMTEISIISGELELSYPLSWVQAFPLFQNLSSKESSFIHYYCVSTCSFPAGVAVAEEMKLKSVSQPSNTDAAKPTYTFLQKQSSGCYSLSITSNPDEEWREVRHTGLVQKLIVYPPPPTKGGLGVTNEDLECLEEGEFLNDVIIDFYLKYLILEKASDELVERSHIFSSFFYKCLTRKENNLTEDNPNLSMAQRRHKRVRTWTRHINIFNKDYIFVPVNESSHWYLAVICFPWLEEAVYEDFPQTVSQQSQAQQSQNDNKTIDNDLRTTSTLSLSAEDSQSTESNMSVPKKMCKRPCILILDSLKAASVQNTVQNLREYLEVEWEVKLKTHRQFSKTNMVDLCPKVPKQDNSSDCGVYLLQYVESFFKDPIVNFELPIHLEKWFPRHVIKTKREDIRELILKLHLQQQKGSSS

[15] = biological target: Luciferin 4-monooxygenase (Photinus pyralis, UniProt P08659); experiment: Counter Screen for Luciferase-based Assay Positives. [Related pubchem assays: 620, 618, 411 ]
[16] = biological target: T6, Heat shock factor protein 1 (Mus musculus, UniProt P38532); experiment: decrease of HSF1-responsive luciferase luminescence – cell-based, NIH3T3, dose retest, confirmation (AID 2382); format: functional;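 also: NIH3T3 fibroblasts with HSF1-driven luciferase reporter stressed by proteasome inhibitor MG132; luminescence from HSF1-driven luciferase expression after 8 hours of MG132 stress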
T6 sequence (P38532 whole entry): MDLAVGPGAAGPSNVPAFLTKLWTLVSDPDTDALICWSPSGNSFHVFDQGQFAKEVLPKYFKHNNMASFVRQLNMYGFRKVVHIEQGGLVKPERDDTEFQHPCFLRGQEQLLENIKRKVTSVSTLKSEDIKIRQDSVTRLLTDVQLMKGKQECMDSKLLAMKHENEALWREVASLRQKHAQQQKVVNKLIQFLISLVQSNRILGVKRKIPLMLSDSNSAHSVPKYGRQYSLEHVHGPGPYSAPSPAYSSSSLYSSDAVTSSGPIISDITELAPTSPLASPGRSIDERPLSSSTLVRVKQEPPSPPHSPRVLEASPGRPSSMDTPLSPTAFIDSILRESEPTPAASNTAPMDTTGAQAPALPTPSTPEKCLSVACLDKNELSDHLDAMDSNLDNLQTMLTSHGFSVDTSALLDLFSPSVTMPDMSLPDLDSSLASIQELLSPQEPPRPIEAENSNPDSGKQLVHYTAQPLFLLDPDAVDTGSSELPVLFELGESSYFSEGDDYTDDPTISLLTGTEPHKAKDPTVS

HT-1080 = experiment: HT1080 cell viability loss – fluorescence readout (AID 620); format: functional, cell-based; settings: Homo sapiens
Caspase-3 [17] = biological target: T3, Caspase-3; format: functional
[18] = biological target: T5, Sentrin-specific protease 7; format: functional
[19] = biological target: T4, Sentrin-specific protease 6; format: functional
[20] = biological target: T2, Sentrin-specific protease 8; format: functional

Sequence of Luciferin 4-monooxygenase (P08659 whole entry): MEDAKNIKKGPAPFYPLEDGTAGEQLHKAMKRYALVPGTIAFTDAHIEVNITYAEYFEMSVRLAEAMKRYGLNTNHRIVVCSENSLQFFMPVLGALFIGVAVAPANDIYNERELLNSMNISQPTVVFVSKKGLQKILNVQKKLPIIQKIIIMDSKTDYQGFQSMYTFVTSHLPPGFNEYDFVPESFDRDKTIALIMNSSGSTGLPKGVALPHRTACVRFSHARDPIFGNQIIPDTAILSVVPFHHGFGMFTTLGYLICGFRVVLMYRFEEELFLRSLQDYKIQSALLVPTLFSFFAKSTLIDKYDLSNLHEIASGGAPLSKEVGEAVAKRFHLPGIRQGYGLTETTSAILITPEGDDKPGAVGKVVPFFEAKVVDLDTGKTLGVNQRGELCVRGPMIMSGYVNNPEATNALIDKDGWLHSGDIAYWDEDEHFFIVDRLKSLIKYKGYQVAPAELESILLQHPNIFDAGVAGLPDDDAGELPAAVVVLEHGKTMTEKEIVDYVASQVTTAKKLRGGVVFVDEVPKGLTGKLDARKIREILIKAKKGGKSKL
Sequence of E3 ubiquitin-protein ligase Mdm2 (Q00987 whole entry): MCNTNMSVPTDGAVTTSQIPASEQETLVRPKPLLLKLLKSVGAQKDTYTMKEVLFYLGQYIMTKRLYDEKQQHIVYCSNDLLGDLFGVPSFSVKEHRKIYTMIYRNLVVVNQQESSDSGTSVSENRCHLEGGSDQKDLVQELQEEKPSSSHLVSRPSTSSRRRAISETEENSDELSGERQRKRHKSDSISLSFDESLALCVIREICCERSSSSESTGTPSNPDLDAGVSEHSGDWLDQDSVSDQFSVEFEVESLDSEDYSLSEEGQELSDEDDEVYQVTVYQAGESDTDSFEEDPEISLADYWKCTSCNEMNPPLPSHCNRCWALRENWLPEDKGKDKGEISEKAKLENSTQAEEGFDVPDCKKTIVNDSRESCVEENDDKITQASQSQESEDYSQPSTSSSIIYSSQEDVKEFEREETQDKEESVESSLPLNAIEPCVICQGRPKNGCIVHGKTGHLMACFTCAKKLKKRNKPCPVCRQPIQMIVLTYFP

C=C1C(=O)O[C@@H]2C[C@@H](C)[C@@H]3C4OC4C(=O)[C@@]3(C)[C@@H](O)[C@H]12 (stereo partly drawn)
EC50 [1]: 6.66 µM (inconclusive)
EC50 [2]: 11.6 µM (not active)
EC50 [3]: > 120 µM (not active)
EC50 [4]: > 120 µM (not active)
EC50 (H4): > 120 µM (not active)
EC50 [5]: 0.644 µM (active)
CC50 [6]: 4.92 µM (active)
IC50 (CHO): 2.43 µM (active)
AC50 (INS1): 8.02 µM (active)

Cc1ccc2nc(N(CCCN(C)C)C(=O)COc3ccc(Cl)cc3)sc2c1
EC50 (Insulin-degrading enzyme [7]): > 54.7 µM (inactive)
EC50 (Insulin-degrading enzyme [8]): > 54.7 µM (inactive)
IC50 (HEK293 [9]): 46.4 µM (inactive)
EC50 (HEK293 [10]): > 54.7 µM (inactive)

N#Cc1ccc(-c2nc(/C=C/c3ccc(F)cc3)no2)cc1
IC50 [11]: > 99 µM (inactive)
IC50 (Caspase-3 [12]): > 99 µM (inactive)
IC50 [13]: > 99 µM (inactive)
IC50 [14]: > 99 µM (inactive)

CC(=O)N(/N=C1\Sc2ccccc2C1=O)c1ccc(C)cc1C
EC50 [15]: < 0.2 µM (active)
EC50 [16]: < 0.16 µM (active)
EC50 (HT-1080): > 50 µM (not active)
IC50 (Caspase-3 [17]): 33 µM (active)
IC50 [18]: 21.5 µM (active)
IC50 [19]: 7.1 µM (active)
IC50 [20]: 86.8 µM (active)
IC50 [11]: 13 µM (active)
IC50 (Caspase-3 [12]): 7.42 µM (active)
IC50 [13]: 5.49 µM (active)
IC50 [14]: 23.3 µM (active)
